The subject of test [1] is DHODH of A. fumigatus. The settings on record: read-out: IC50 value for DHODH; cited from earlier work.
The test system of test [2] is Sclerotinia sclerotiorum. The settings on record: cited from earlier work.
Test [3] deals with Fusarium graminearum. The settings on record: cited from earlier work.
The test system of test [4] is P. oryzae. Format: cell-based, Pyricularia oryzae.
The subject of test [5] is P. oryzae 40901. Format: cell-based, Pyricularia oryzae.
Test [6] relates to DHODH of humans. To be noted: read-out: IC50 value for DHODH; cited from earlier work.
The subject of test [7] is DHODH of mice. To be noted: read-out: IC50 value for DHODH; cited from earlier work.
Test [8] has as its system DHODH of rats. The settings on record: read-out: IC50 value for DHODH; cited from earlier work.

In the case of `Cc1cc(-c2ccccc2)c(C(=O)C(=O)Nc2ccc(N3CCN(c4ncc(F)cn4)CC3)cc2)n1C` [F901318, olorofim], the IC50 in test [1] is 0.044 ± 0.01 µM.

On to `CC1(C)N=C(c2cnc3ccccc3c2)c2ccccc2C1(F)F` [quinofumelin, 3-(4,4-difluoro-3,3-dimethyl-3,4-dihydroisoquinolin-1-yl)quinoline], for which the “antifungal activity on PDA medium” value in test [2] is recorded as “strong antifungal activity”. In addition, the “antifungal activity on PDA medium” value in test [3] was “strong antifungal activity”. Further, the “antifungal activity on PDA medium” value in test [4] is “moderate antifungal activity”. Moreover, in test [5], the “mycelial growth on minimal medium agar plates” value is listed as “could not be recognized”, the “mycelial growth with exogenous orotate at high quinofumelin concentration” value is given as “slow mycelial growth”, the “recovery of mycelial growth by exogenous dihydroorotate” value is listed as “did not recover” and the “recovery of mycelial growth by exogenous orotate” value is listed as “recovered”. The “recovery of mycelial growth by exogenous uracil” value in test [5] is “restored”.

For the compound `C/C(O)=C(\C#N)C(=O)Nc1ccc(C(F)(F)F)cc1` [A77-1726, teriflunomide], the IC50 is 0.773 ± 0.078 µM in test [6], 0.082 ± 0.021 µM in test [7] and 0.018 ± 0.003 µM in test [8].

These data come from publication PMC9716045 (Journal of Pesticide Science, 2022).
